Experimental findings from ChEMBL document CHEMBL1135062, “Total synthesis and semi-synthetic approaches to analogues of antibacterial natural product althiomycin” (2002) are described below.

What is called MIC is the lowest concentration found to suppress growth.

Format in all cases: functional
For assay [1], the system named is Escherichia coli. The assay can be described thus: Tested for the minimum inhibitory concentration against Escherichia coli 1852E + 3 ug/mL PMBN.
In another assay the test system is Bacillus subtilis. As to the kind of experiment: Tested for the minimum inhibitory concentration against Bacillus subtilis 6633.
Assay [2] concerns Staphylococcus aureus. As to the kind of experiment: Tested for the minimum inhibitory concentration against Staphylococcus aureus 853E.
The next assay concerns Saccharomyces cerevisiae. The assay can be described thus: Tested for the minimum inhibitory concentration against Saccharomyces cerevisiae NCYC 81.
The test system of assay [3] is Staphylococcus aureus. As to the kind of experiment: Tested for the minimum inhibitory concentration against Staphylococcus aureus col.
The next assay concerns Streptococcus pneumoniae. The assay can be described thus: Tested for the minimum inhibitory concentration against Streptococcus pneumoniae 3512.
Assay [4] relates to Escherichia coli. The assay can be described thus: Tested for the minimum inhibitory concentration against Escherichia coli 1852E PM.
In another assay the test system is Enterococcus faecalis. The assay can be described thus: Tested for the minimum inhibitory concentration against […] faecalis 850E.

Values after ≈ are worked out from the molar mass of the structure shown.

On to `COC1=CC(=O)N(C(=O)[C@H]2CSC(C(CO)NC(=O)c3csc(/C=N/O)n3)=N2)C1` (some centres undefined), for which the minimum inhibitory concentration (MIC) is 1 µg/mL in the assay with Escherichia coli [1]; 16 µg/mL (≈ 36.4 µM) in the assay on Bacillus subtilis; 16 µg/mL (≈ 36.4 µM) in the assay with Staphylococcus aureus [2]; more than 32 µg/mL in the assay with Saccharomyces cerevisiae; 16 µg/mL (≈ 36.4 µM) with Staphylococcus aureus [3]; 4 µg/mL (≈ 9.1 µM) against Streptococcus pneumoniae. Moreover, the MIC in the assay on Escherichia coli [4] came to 1 µg/mL (≈ 2.28 µM); against Enterococcus faecalis it was 16 µg/mL (≈ 36.4 µM).

For the compound `CO/N=C(\C(=O)N[C@@H]1C(=O)N2C(C(=O)O)=C(CSc3nc(=O)c(O)nn3C)CS[C@H]12)c1csc(N)n1` [CEFTRIAXONE], the MIC with Escherichia coli [1] is 0.01 µg/mL; in the assay on Bacillus subtilis, 0.25 µg/mL (≈ 0.451 µM); in the assay on Staphylococcus aureus [2], 4 µg/mL (≈ 7.21 µM); against Saccharomyces cerevisiae, more than 32 µg/mL; in the assay on Staphylococcus aureus [3], more than 32 µg/mL; against Streptococcus pneumoniae, 0.01 µg/mL (≈ 0.018 µM). Also, the minimum inhibitory concentration (MIC) against Escherichia coli [4] came out at 0.06 µg/mL (≈ 0.108 µM); in the assay on Enterococcus faecalis it was 16 µg/mL (≈ 28.9 µM).

Consider `COC1=CC(=O)N(C(=O)[C@H]2CSC(CNC(C)=O)=N2)C1`, for which the MIC was 8 µg/mL with Escherichia coli [1]; 16 µg/mL (≈ 53.8 µM) with Bacillus subtilis; 32 µg/mL (≈ 108 µM) in the assay on Staphylococcus aureus [2]; more than 32 µg/mL against Saccharomyces cerevisiae; 32 µg/mL (≈ 108 µM) in the assay on Staphylococcus aureus [3]; 16 µg/mL (≈ 53.8 µM) in the assay with Streptococcus pneumoniae. Also, the MIC with Escherichia coli [4] amounted to 16 µg/mL (≈ 53.8 µM); in the assay on Enterococcus faecalis, 32 µg/mL (≈ 108 µM).
